Reference: patent US10858366B2 (priority 2016, dated 2020)

These compounds were tested against RNP_CAL (PB2, PB1, PA, NP, influenza A Luciferase reporter in 293T cells) (Influenza A virus (strain swl A/California/04/2009 H1N1), UniProt C3W5S0) (assay: cell-based).

Row | Structure (SMILES) | EC50 [µM]
1 | CCc1cnc2n1C[C@H](C(c1ccccc1)c1ccccc1)n1ccc(=O)c(O)c1-2 [Example 9, (S)-6-benzhydryl-3-ethyl-11-hydroxy-5H-imidazo[1,2-a]pyrido[2,1-c]pyrazin-10(6H)-one] | 0.58
2 | O=c1cnn2c(c1O)-c1nccn1CC2C(c1ccc(Cl)cc1)c1ccc(Cl)cc1 (centres unmarked) [Example 10, 6-(bis(4-chlorophenyl)methyl)-11-hydroxy-5H-imidazo[2′,1′:3,4]pyrazino[1,2-b]pyridazin-10(6H)-one] | 0.32
3 | O=c1cnn2c(c1O)-c1nccn1CC2C(c1cccc(Cl)c1)c1cccc(Cl)c1 (centres unmarked) [Example 11, 6-(bis(3-chlorophenyl)methyl)-11-hydroxy-5H-imidazo[2′,1′:3,4]pyrazino[1,2-b]pyridazin-10(6H)-one] | 0.08
4 | O=c1cnn2c(c1O)-c1nccn1CC2C(c1ccc(F)cc1)c1ccc(F)cc1 (centres unmarked) [Example 12, 6-(bis(4-fluorophenyl)methyl)-11-hydroxy-5H-imidazo[2′,1′:3,4]pyrazino[1,2-b]pyridazin-10(6H)-one] | 0.8
5 | Cc1cnc2n1C[C@H](C(c1ccccc1)c1ccccc1)n1ccc(=O)c(O)c1-2 [Example 13, (S)-6-benzhydryl-11-hydroxy-3-methyl-5H-imidazo[1,2-a]pyrido[2,1-c]pyrazin-10(6H)-one] | 0.31
6 | O=c1cnn2c(c1O)-c1nccn1C[C@@H]2C(c1cccc(Cl)c1)c1cccc(Cl)c1 [Example 15, (S)-6-(bis(3-chlorophenyl)methyl)-11-hydroxy-5H-imidazo [2′,1′:3,4] pyrazino [1,2-b]pyridazin-10(6H)-one] | 0.025
7 | O=c1cnn2c(c1O)-c1nccn1C[C@H]2C(c1cccc(Cl)c1)c1cccc(Cl)c1 [Example 16, (R)-6-(bis(3-chlorophenyl)methyl)-11-hydroxy-5H-imidazo[2′,1′:3,4] pyrazino [1,2-b]pyridazin-10(6H)-one] | 0.82
8 | O=c1cnn2c(c1O)-c1nccn1C[C@@H]2[C@@H](c1ccc(F)cc1)c1cccc(C(F)(F)F)c1 [Example 21, (S)-6-((S)-(4-fluorophenyl)(3-(trifluoromethyl)phenyl)methyl)-11-hydroxy-5,6-dihydro-10H-imidazo[2′,1′:3,4]pyrazino[1,2-b]pyridazin-10-one] | 0.052
9 | O=c1cnn2c(c1O)-c1nccn1C[C@@H]2C(c1ccc(F)cc1)c1ccc(F)cc1 [Example 22, (S)-6-(bis(4-fluorophenyl)methyl)-11-hydroxy-5,6-dihydro-10H-imidazo[2′,1′:3,4]pyrazino[1,2-b]pyridazin-10-one] | 0.082
10 | O=c1cnn2c(c1O)-c1nccn1C[C@@H]2[C@@H](c1ccc(F)cc1)c1ccc(F)c(F)c1 [Example 25, (S)-6-((S)-(3,4-difluorophenyl)(4-fluorophenyl)methyl)-11-hydroxy-5H-imidazo[2′,1′:3,4]pyrazino[1,2-b]pyridazin-10(6H)-one] | 0.056
11 | O=c1cnn2c(c1O)-c1nccn1C[C@@H]2[C@H](c1ccc(F)cc1)c1cccc(F)c1 [Example 26, (S)-6-((R)-(3-fluorophenyl)(4-fluorophenyl)methyl)-11-hydroxy-5,6-dihydro-10H-imidazo[2′,1′:3,4]pyrazino[1,2-b]pyridazin-10-one] | 0.038
12 | Cc1cc(F)ccc1[C@H](c1ccc(F)cc1)[C@H]1Cn2ccnc2-c2c(O)c(=O)cnn21 [Example 27, (S)-6-((S)-(4-fluoro-2-methylphenyl)(4-fluorophenyl)methyl)-11-hydroxy-5,6-dihydro-10H-imidazo[2′,1′:3,4]pyrazino[1,2-b]pyridazin-10-one] | 0.05
13 | CSc1cccc([C@H](c2ccc(F)cc2)[C@H]2Cn3ccnc3-c3c(O)c(=O)cnn32)c1 [Example 28, (S)-6-((S)-(4-fluorophenyl)(3-(methylthio)phenyl)methyl)-11-hydroxy-5,6-dihydro-10H-imidazo[2′,1′:3,4]pyrazino[1,2-b]pyridazin-10-one] | 0.081
14 | O=c1cnn2c(c1O)-c1nccn1C[C@@H]2[C@@H](c1ccc(F)cc1)c1ccccc1Cl [Example 29, (S)-6-((S)-(2-chlorophenyl)(4-fluorophenyl)methyl)-11-hydroxy-5,6-dihydro-10H-imidazo[2′,1′:3,4]pyrazino[1,2-b]pyridazin-10-one] | 0.072
15 | O=c1cnn2c(c1O)-c1nccn1C[C@@H]2[C@@H](c1ccc(F)cc1)c1cccc(Cl)c1 [Example 31, (S)-6-((S)-(3-chlorophenyl)(4-fluorophenyl)methyl)-11-hydroxy-5,6-dihydro-10H-imidazo[2′,1′:3,4]pyrazino[1,2-b]pyridazin-10-one] | 0.037
16 | O=c1cnn2c(c1O)-c1nccn1C[C@@H]2[C@@H](c1ccc(F)cc1)c1ccc(C(F)(F)F)cc1 [Example 32, (S)-6-((R)-(4-fluorophenyl)(4-(trifluoromethyl)phenyl)methyl)-11-hydroxy-5,6-dihydro-10H-imidazo[2′,1′:3,4]pyrazino[1,2-b]pyridazin-10-one] | 0.25

Row | Structure (SMILES) | EC50 [µM]
17 | O=c1cnn2c(c1O)-c1nccn1C[C@@H]2[C@@H](c1ccc(F)cc1)c1cc(F)cc(F)c1 [Example 34, (S)-6-((S)-(3,5-difluorophenyl)(4-fluorophenyl)methyl)-11-hydroxy-5H-imidazo[2′,1′:3,4]pyrazino[1,2-b]pyridazin-10(6H)-one] | 0.025
18 | Cc1ccccc1[C@H](c1ccc(F)cc1Br)[C@H]1Cn2ccnc2-c2c(O)c(=O)cnn21 [Example 35, (S)-6-((R)-(2-bromo-4-fluorophenyl)(o-tolyl)methyl)-11-hydroxy-5,6-dihydro-10H-imidazo[2′,1′:3,4]pyrazino[1,2-b]pyridazin-10-one] | 0.05
19 | O=c1cnn2c(c1O)-c1nccn1C[C@@H]2[C@H](c1cccc(F)c1)c1ccc(F)cc1Br [Example 36, (S)-6-((R)-(2-bromo-4-fluorophenyl)(3-fluorophenyl)methyl)-11-hydroxy-5,6-dihydro-10H-imidazo[2′,1′:3,4]pyrazino[1,2-b]pyridazin-10-one] | 0.027
20 | CS(=O)(=O)c1cccc([C@H](c2ccc(F)cc2)[C@H]2Cn3ccnc3-c3c(O)c(=O)cnn32)c1 [Example 42, (S)-6-((S)-(4-fluorophenyl)(3-(methylsulfonyl)phenyl)methyl)-11-hydroxy-5,6-dihydro-10H-imidazo[2′,1′:3,4]pyrazino[1,2-b]pyridazin-10-one] | 2.8
21 | N#Cc1ccccc1[C@H](c1ccc(F)cc1)[C@H]1Cn2ccnc2-c2c(O)c(=O)cnn21 [Example 44, 2-((S)-(4-fluorophenyl)((S)-11-hydroxy-10-oxo-5,6-dihydro-10H-imidazo[2′,1′:3,4]pyrazino[1,2-b]pyridazin-6-yl)methyl)benzonitrile] | 0.3
22 | N#Cc1ccc([C@H](c2ccc(F)cc2)[C@H]2Cn3ccnc3-c3c(O)c(=O)cnn32)cc1 [Example 45, 4-((R)-(4-fluorophenyl)((S)-11-hydroxy-10-oxo-5,6-dihydro-10H-imidazo[2′,1′:3,4]pyrazino[1,2-b]pyridazin-6-yl)methyl)benzonitrile] | 0.042
23 | O=c1cnn2c(c1O)-c1nc(Br)c(Br)n1C[C@@H]2C(c1ccc(F)cc1)c1ccc(F)cc1 [Example 48, (S)-6-(bis(4-fluorophenyl)methyl)-2,3-dibromo-11-hydroxy-5,6-dihydro-10H-imidazo[2′,1′:3,4]pyrazino[1,2-b]pyridazin-10-one] | 4.3
24 | N#Cc1cnc2n1C[C@H](C(c1ccc(F)cc1)c1ccc(F)cc1)n1ncc(=O)c(O)c1-2 [Example 49, (S)-6-(bis(4-fluorophenyl)methyl)-11-hydroxy-10-oxo-5,6-dihydro-10H-imidazo[2′,1′:3,4]pyrazino[1,2-b]pyridazine-3-carbonitrile] | 0.82
25 | O=c1cnn2c(c1O)-c1ncc(CO)n1C[C@@H]2C(c1ccc(F)cc1)c1ccc(F)cc1 [Example 50, (S)-6-(bis(4-fluorophenyl)methyl)-11-hydroxy-3-(hydroxymethyl)-5,6-dihydro-10H-imidazo[2′,1′:3,4]pyrazino[1,2-b]pyridazin-10-one] | 0.1
26 | Cc1ccccc1[C@H](c1ccc(F)cc1)[C@H]1Cn2c(CO)cnc2-c2c(O)c(=O)cnn21 [Example 51, (S)-6-((S)-(4-fluorophenyl)(o-tolyl)methyl)-11-hydroxy-3-(hydroxymethyl)-5,6-dihydro-10H-imidazo[2′,1′:3,4]pyrazino[1,2-b]pyridazin-10-one] | 0.09
27 | CC(O)c1cnc2n1C[C@H](C(c1ccccc1)c1ccccc1)n1ccc(=O)c(O)c1-2 (stereo partly drawn) [Example 55, (6S)-6-benzhydryl-11-hydroxy-3-(1-hydroxyethyl)-5H-imidazo[1,2-a]pyrido[2,1-c]pyrazin-10(6H)-one] | 1.7
28 | O=c1ccn2c(c1O)-c1ncc(CN3CCSCC3)n1C[C@@H]2C(c1ccccc1)c1ccccc1 [Example 62, (S)-6-benzhydryl-11-hydroxy-3-(thiomorpholinomethyl)-5,6-dihydro-10H-imidazo[1,2-a]pyrido[2,1-c]pyrazin-10-one] | 0.64
29 | O=c1ccn2c(c1O)-c1ncc(CNC3CCOCC3)n1C[C@@H]2C(c1ccccc1)c1ccccc1 [Example 65, (S)-6-benzhydryl-11-hydroxy-3-(((tetrahydro-2H-pyran-4-yl)amino)methyl)-5,6-dihydro-10H-imidazo[1,2-a]pyrido[2,1-c]pyrazin-10-one] | 3.5
30 | C[C@@H](NCc1cnc2n1C[C@H](C(c1ccccc1)c1ccccc1)n1ccc(=O)c(O)c1-2)C(F)(F)F [Example 66, (S)-6-benzhydryl-11-hydroxy-3-((((R)-1,1,1-trifluoropropan-2-yl)amino)methyl)-5,6-dihydro-10H-imidazo[1,2-a]pyrido[2,1-c]pyrazin-10-one] | 0.31
31 | O=C(NC1CC1)c1cnc2n1C[C@H](C(c1ccccc1)c1ccccc1)n1ccc(=O)c(O)c1-2 [Example 70, (S)-6-benzhydryl-N-cyclopropyl-11-hydroxy-10-oxo-5,6-dihydro-10H-imidazo[1,2-a]pyrido[2,1-c]pyrazine-3-carboxamide] | 1.7
32 | O=C(c1cnc2n1C[C@H](C(c1ccccc1)c1ccccc1)n1ccc(=O)c(O)c1-2)N1CCCC1 [Example 72, (S)-6-benzhydryl-11-hydroxy-3-(pyrrolidine-1-carbonyl)-5,6-dihydro-10H-imidazo[1,2-a]pyrido[2,1-c]pyrazin-10-one] | 1.7
